Measurements from patent US20240299416A1, “TREATMENT OF NF-kB-MEDIATED DISEASE” (ReveraGen BioPharma, Inc., priority 2021, published 2024).

Assays:
boys with DMD = experiment: VBP15-004 (VISION-DMD) Phase 2b efficacy at 24 weeks; type: in vivo, human
Source text: The second period of 24 weeks, where all participants receive vamorolone treatment on either of the two dose levels, will continue to capture additional longer-term safety and tolerability data.

[1] = molecular target: T1, mineralocorticoid receptor (Homo sapiens, UniProt P08235); settings: cited from earlier work
T1 sequence (P08235 1-984): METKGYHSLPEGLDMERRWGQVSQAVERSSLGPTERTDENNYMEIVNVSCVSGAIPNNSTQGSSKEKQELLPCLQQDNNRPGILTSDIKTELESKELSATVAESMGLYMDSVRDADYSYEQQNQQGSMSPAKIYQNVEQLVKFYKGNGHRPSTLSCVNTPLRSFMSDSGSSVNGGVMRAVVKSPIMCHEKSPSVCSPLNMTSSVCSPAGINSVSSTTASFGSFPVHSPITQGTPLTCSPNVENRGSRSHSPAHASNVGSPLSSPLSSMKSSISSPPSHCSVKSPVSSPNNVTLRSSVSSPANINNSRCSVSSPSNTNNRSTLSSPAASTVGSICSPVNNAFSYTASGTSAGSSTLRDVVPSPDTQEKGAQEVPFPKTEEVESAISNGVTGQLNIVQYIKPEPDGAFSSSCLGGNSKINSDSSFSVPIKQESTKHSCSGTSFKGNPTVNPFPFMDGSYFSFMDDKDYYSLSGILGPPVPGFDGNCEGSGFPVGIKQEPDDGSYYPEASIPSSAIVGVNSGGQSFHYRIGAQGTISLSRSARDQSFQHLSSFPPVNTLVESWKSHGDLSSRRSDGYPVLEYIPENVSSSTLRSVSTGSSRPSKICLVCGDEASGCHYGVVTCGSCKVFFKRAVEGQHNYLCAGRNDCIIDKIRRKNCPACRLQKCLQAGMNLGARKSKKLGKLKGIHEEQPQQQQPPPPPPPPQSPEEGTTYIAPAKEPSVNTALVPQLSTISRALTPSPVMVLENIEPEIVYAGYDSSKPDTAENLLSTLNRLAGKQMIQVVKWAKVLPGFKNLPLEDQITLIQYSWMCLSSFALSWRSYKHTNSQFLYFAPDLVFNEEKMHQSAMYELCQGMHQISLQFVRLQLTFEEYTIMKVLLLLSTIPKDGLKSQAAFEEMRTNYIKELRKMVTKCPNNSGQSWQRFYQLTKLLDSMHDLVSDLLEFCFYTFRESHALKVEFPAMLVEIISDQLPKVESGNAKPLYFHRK

With C[C@@H]1C[C@H]2[C@@H]3CCC4=CC(=O)C=C[C@]4(C)C3=CC[C@]2(C)[C@@]1(O)C(=O)CO [Vamorolone, 17α,21-dihydroxy-16α-methylpregna-1,4,9(11)-triene-3,20-dione] the 6MWT versus placebo (boys with DMD; 2 mg/kg/day, 24 weeks, p=0.009) was “superiority”, the “TTSTAND velocity versus placebo” value (boys with DMD; 2 mg/kg/day, 24 weeks, p=0.02) was “superiority” and the TTSTAND (boys with DMD; 6 mg/kg/day group, baseline) was 6.0 s. The “efficacy endpoints versus prednisone” value (boys with DMD; 6 mg/kg/day vs prednisone 0.75 mg/kg/day, 24 weeks) was “no statistically significant differences”, the TTRW versus placebo (boys with DMD; 6 mg/kg/day, 24 weeks, p=0.002) was “superiority” and the 6MWT versus placebo (boys with DMD; 6 mg/kg/day, 24 weeks, p=0.003) was “superiority”. The “activity at the mineralocorticoid receptor” value [1] was “potent antagonist”.
